Here are results for 15 compounds from patent US20240208992A1, “MACROCYCLES AS CFTR MODULATORS” (Idorsia Pharmaceuticals Ltd, priority 2021, published 2024).

For orientation: EC50 means the concentration giving half of the maximal effect. The term Emax denotes the maximal effect, on the per cent scale that the assay sets.

The assay addresses human F508del-CFTR (Homo sapiens, UniProt P13569, DEL508-508). Kind of assay: F508del-CFTR cell surface expression (corrector activity), DiscoveRx ß-galactosidase complementation chemiluminescence assay in recombinant U2OS cell line.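 For all read-outs here: U2OS cells co-expressing ProLink-tagged F508del-CFTR and a membrane-anchored enzyme acceptor, where more surface CFTR restores β-galactosidase activity measured by chemiluminescence.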 To be noted: for EC50: EC50, F508del-CFTR cell surface expression, U2OS cells, 16h compound incubation, geomean values; for Emax: U2OS, in relation to Emax of corrector lumacaftor (=100%), arithmetic mean values.

Chain of human F508del-CFTR (P13569 with tags, fused parts or gaps DEL508-508): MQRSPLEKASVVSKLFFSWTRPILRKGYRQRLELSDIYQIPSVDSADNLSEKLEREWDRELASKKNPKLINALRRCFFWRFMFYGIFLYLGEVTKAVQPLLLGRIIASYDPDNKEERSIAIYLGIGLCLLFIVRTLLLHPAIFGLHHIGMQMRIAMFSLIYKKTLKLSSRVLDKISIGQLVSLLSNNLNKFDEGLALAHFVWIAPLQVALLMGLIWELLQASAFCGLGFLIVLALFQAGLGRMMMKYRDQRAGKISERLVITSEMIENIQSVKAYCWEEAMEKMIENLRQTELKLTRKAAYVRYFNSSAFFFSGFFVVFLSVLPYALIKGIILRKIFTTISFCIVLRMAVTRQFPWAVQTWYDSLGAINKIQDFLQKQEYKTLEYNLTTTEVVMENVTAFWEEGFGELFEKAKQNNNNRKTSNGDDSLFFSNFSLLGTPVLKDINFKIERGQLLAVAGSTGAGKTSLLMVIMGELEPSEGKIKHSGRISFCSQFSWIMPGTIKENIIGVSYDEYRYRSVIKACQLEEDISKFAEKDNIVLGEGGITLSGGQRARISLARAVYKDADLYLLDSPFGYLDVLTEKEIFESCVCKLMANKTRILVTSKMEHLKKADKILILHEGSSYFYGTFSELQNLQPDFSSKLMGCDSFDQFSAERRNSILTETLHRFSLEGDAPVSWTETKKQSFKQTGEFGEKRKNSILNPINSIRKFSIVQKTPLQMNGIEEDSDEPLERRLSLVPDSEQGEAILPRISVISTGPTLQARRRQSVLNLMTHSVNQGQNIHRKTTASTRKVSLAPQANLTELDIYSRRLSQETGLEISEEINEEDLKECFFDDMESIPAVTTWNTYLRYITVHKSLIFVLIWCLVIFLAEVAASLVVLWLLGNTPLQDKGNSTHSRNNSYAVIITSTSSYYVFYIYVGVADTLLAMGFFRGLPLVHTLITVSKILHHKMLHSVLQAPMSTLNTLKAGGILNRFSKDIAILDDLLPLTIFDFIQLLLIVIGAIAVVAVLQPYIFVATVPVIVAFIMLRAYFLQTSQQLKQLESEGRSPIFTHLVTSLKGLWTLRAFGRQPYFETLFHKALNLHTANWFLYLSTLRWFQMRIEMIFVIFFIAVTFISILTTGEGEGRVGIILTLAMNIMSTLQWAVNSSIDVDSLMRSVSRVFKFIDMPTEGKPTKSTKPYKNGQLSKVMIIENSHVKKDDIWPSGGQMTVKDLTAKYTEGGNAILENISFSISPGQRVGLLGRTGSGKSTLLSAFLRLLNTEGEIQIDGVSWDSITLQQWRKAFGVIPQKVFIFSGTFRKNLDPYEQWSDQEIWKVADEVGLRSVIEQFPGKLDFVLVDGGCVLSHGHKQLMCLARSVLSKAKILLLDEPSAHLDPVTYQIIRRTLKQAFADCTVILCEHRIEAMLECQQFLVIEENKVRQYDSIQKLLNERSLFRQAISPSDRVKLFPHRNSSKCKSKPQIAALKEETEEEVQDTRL

Regarding `COc1cccc(CCNC(=O)[C@@H]2CC(=O)N(C)[C@@H](CC(C)C)C(=O)N(C)C3(CC3)C(=O)N[C@H](Cc3ccccc3)COc3cnc4ccccc4c3C(=O)N2)c1` [Example 433, (3′S,7′S,13′R)-13′-benzyl-7′-isobutyl-N-(3-methoxyphenethyl)-6′,9′-dimethyl-1′,5′,8′,11′-tetraoxo-2′,3′,4′,5′,6′,7′,8′,9′,11′,12′,13′,14′-dodecahydro-1′H-spiro[cyclopropane-1,10′-[1]oxa[4,7,10,14]tetraazacycloheptadecino[17,16-c]quinoline]-3′-carboxamide], the EC50 turned out to be 167 nM and the Emax is 344%.

On to `Cc1cc(CCNC(=O)[C@@H]2CC(=O)N(C)[C@@H](CC(C)C)C(=O)N(C)C3(CC3)C(=O)N[C@H](Cc3ccccc3)COc3cnc4ccccc4c3C(=O)N2)on1` [Example 434, (3′S,7′S,13′R)-13′-benzyl-7′-isobutyl-6′,9′-dimethyl-N-(2-(3-methylisoxazol-5-yl)ethyl)-1′,5′,8′,11′-tetraoxo-2′,3′,4′,5′,6′,7′,8′,9′,11′,12′,13′,14′-dodecahydro-1′H-spiro[cyclopropane-1,10′-[1]oxa[4,7,10,14]tetraazacycloheptadecino[17,16-c]quinoline]-3′-carboxamide], for which the EC50 was 664 nM and the Emax came out at 327%.

In the case of `Cc1cc(CCNC(=O)[C@@H]2CC(=O)N(C)[C@@H](CC3CCCC3)C(=O)N3CCOC[C@@H]3C(=O)N[C@H](Cc3ccccc3)COc3ccc4nc(C)oc4c3C(=O)N2)on1` [Example 435], the EC50 was found to be 895 nM and the Emax is 119%.

In the case of `Cc1cc(CCNC(=O)[C@@H]2CC(=O)N(C)[C@@H](CC3CCCC3)C(=O)N3CCCC[C@@H]3C(=O)N[C@H](Cc3ccccc3)COc3ccc4nc(C)oc4c3C(=O)N2)on1` [Example 436, (8S,12S,18aR,21R)-21-benzyl-12-(cyclopentylmethyl)-4,11-dimethyl-N-(2-(3-methylisoxazol-5-yl)ethyl)-6,10,13,19-tetraoxo-6,7,8,9,10,11,12,13,16,17,18,18a,19,20,21,22-hexadecahydro-15H-oxazolo[4′,5′:5,6]benzo[1,2-p]pyrido[2,1-f][1]oxa[4,7,10,14]tetraazacycloheptadecine-8-carboxamide], the EC50 amounted to 458 nM and the Emax turned out to be 300%.

For `Cc1cc(CCNC(=O)[C@@H]2CC(=O)N(C)[C@@H](CC3CCCC3)C(=O)N3CCCC[C@H]3C(=O)N[C@H](Cc3ccccc3)COc3ccc4nc(C)oc4c3C(=O)N2)on1` [Example 437, (8S,12S,18aS,21R)-21-benzyl-12-(cyclopentylmethyl)-4,11-dimethyl-N-(2-(3-methylisoxazol-5-yl)ethyl)-6,10,13,19-tetraoxo-6,7,8,9,10,11,12,13,16,17,18,18a,19,20,21,22-hexadecahydro-15H-oxazolo[4′,5′:5,6]benzo[1,2-p]pyrido[2,1-f][1]oxa[4,7,10,14]tetraazacycloheptadecine-8-carboxamide], the EC50 stood at 844 nM and the Emax came out at 159%.

As to `COc1cccc(CCNC(=O)[C@@H]2CC(=O)N(C)[C@@H](CC(C)C)C(=O)N(C)C3(CC3)C(=O)N[C@H](Cc3ccccc3)COc3ccnc(OC)c3C(=O)N2)c1` [Example 438, (3′R,9′S,13′S)-3′-benzyl-9′-isobutyl-16′-methoxy-N-(3-methoxyphenethyl)-7′,10′-dimethyl-5′,8′,11′,15′-tetraoxo-2′,3′,4′,5′,8′,9′,10′,11′,12′,13′,14′,15′-dodecahydro-7′H-spiro[cyclopropane-1,6′-pyrido[3,4-p][1]oxa[4,7,10,14]tetraazacycloheptadecine]-13′-carboxamide], the 50% effective concentration (EC50) worked out at 474 nM and the Emax was 422%.

On to `COc1cccc(CCNC(=O)[C@@H]2CC(=O)N(C)[C@@H](CC(C)C)C(=O)N(C)C3(CC3)C(=O)N[C@H](Cc3ccccc3)COc3cnc4c(F)cccc4c3C(=O)N2)c1` [Example 439, (3′S,7′S,13′R)-13′-benzyl-18′-fluoro-7′-isobutyl-N-(3-methoxyphenethyl)-6′,9′-dimethyl-1′,5′,8′,11′-tetraoxo-2′,3′,4′,5′,6′,7′,8′,9′,11′,12′,13′,14′-dodecahydro-1′H-spiro[cyclopropane-1,10′-[1]oxa[4,7,10,14]tetraazacycloheptadecino[17,16-c]quinoline]-3′-carboxamide], for which the EC50 turned out to be 253 nM and the Emax came out at 345%.

On to `Cc1cc(CCNC(=O)[C@@H]2CC(=O)N(C)[C@@H](CC(C)C)C(=O)N(C)C3(CC3)C(=O)N[C@H](Cc3ccccc3)COc3cnc4c(F)cccc4c3C(=O)N2)on1` [Example 440, (3′S,7′S,13′R)-13′-benzyl-18′-fluoro-7′-isobutyl-6′,9′-dimethyl-N-(2-(3-methylisoxazol-5-yl)ethyl)-1′,5′,8′,11′-tetraoxo-2′,3′,4′,5′,6′,7′,8′,9′,11′,12′,13′,14′-dodecahydro-1′H-spiro[cyclopropane-1,10′-[1]oxa[4,7,10,14]tetraazacycloheptadecino[17,16-c]quinoline]-3′-carboxamide], for which the EC50 stood at 788 nM and the Emax turned out to be 296%.

`COc1cccc(CCNC(=O)[C@@H]2CC(=O)N(C)[C@@H](CC(C)C)C(=O)N(C)CC(=O)N[C@H](Cc3ccccc3)COc3ccc4ncccc4c3C(=O)N2)c1` [Example 441, (3S,7S,13R)-13-benzyl-7-isobutyl-N-(3-methoxyphenethyl)-6,9-dimethyl-1,5,8,11-tetraoxo-1,2,3,4,5,6,7,8,9,10,11,12,13,14-tetradecahydro-[1]oxa[4,7,10,14]tetraazacycloheptadecino[16,17-f]quinoline-3-carboxamide]: the concentration for a half-maximal effect (EC50) was 815 nM and the Emax worked out at 326%.

As to `COc1cccc(CCNC(=O)[C@@H]2CC(=O)N(C)[C@@H](CC(C)C)C(=O)N(C)C3(CC3)C(=O)N[C@H](Cc3ccccc3)COc3nc4ccccn4c3C(=O)N2)c1` [Example 442, (3′R,9′S,13′S)-3′-benzyl-9′-isobutyl-N-(3-methoxyphenethyl)-7′,10′-dimethyl-5′,8′,11′,15′-tetraoxo-2′,3′,4′,5′,8′,9′,10′,11′,12′,13′,14′,15′-dodecahydro-7′H-spiro[cyclopropane-1,6′-pyrido[2′,11:2,3]imidazo[4,5-p][1]oxa[4,7,10,14]tetraazacycloheptadecine]-13′-carboxamide], the EC50 was determined as 443 nM and the Emax is 154%.

With `Cc1cc(CCNC(=O)[C@@H]2CC(=O)N(C)[C@@H](CC(C)C)C(=O)N3CCCC[C@@H]3C(=O)N[C@H](Cc3ccccc3)COc3cnc4c(F)cccc4c3C(=O)N2)on1` [Example 443, (9S,13S,19aR,22R)-22-benzyl-3-fluoro-13-isobutyl-12-methyl-N-(2-(3-methylisoxazol-5-yl)ethyl)-7,11,14,20-tetraoxo-7,8,9,10,11,12,13,14,17,18,19,19a,20,21,22,23-hexadecahydro-16H-pyrido[2′,1′:6,7][1]oxa[4,7,10,14]tetraazacycloheptadecino[17,16-c]quinoline-9-carboxamide], the EC50 was found to be 316 nM and the Emax amounted to 275%.

`Cc1cc(CCNC(=O)[C@@H]2CC(=O)N(C)[C@@H](CC(C)C)C(=O)N3CCCC[C@@H]3C(=O)N[C@H](Cc3ccccc3)COc3ccnc(C)c3C(=O)N2)on1` [Example 444, (7S,11S,17aR,20R)-20-benzyl-11-isobutyl-4,10-dimethyl-N-(2-(3-methylisoxazol-5-yl)ethyl)-5,9,12,18-tetraoxo-5,6,7,8,9,10,11,12,15,16,17,17a,18,19,20,21-hexadecahydro-14H-dipyrido[2,1-f:3′,4′-p][1]oxa[4,7,10,14]tetraazacycloheptadecine-7-carboxamide]: the EC50 was determined as 1050 nM and the Emax is 199%.

`Cc1cc(CCNC(=O)[C@@H]2CC(=O)N(C)[C@@H](CC(C)C)C(=O)N(C[C@H]3CCCCO3)CC(=O)N[C@H](Cc3ccccc3)COc3cnc4ccccc4c3C(=O)N2)on1` [Example 445, (3S,7S,13R)-13-benzyl-7-isobutyl-6-methyl-N-(2-(3-methylisoxazol-5-yl)ethyl)-1,5,8,11-tetraoxo-9-(((R)-tetrahydro-2H-pyran-2-yl)methyl)-1,2,3,4,5,6,7,8,9,10,11,12,13,14-tetradecahydro-[1]oxa[4,7,10,14]tetraazacycloheptadecino[17,16-c]quinoline-3-carboxamide]: the EC50 is 958 nM and the Emax worked out at 194%.

In the case of `Cc1cc(CCNC(=O)[C@@H]2CC(=O)N(C)[C@@H](CC(C)C)C(=O)N(CC[C@@H]3CCCCO3)CC(=O)N[C@H](Cc3ccccc3)COc3cnc4ccccc4c3C(=O)N2)on1` [Example 446, (3S,7S,13R)-13-benzyl-7-isobutyl-6-methyl-N-(2-(3-methylisoxazol-5-yl)ethyl)-1,5,8,11-tetraoxo-9-(2-((S)-tetrahydro-2H-pyran-2-yl)ethyl)-1,2,3,4,5,6,7,8,9,10,11,12,13,14-tetradecahydro-[1]oxa[4,7,10,14]tetraazacycloheptadecino[17,16-c]quinoline-3-carboxamide], the concentration for a half-maximal effect (EC50) stood at 900 nM and the Emax was determined as 248%.

In the case of `COc1cccc(CCNC(=O)[C@@H]2CC(=O)N(C)[C@@H](CC(C)C)C(=O)N(C)C3(CC3)C(=O)N[C@H](Cc3ccccc3)COc3ccc4c(c3C(=O)N2)OCC4)c1` [Example 447, (8R,14S,18S)-8-benzyl-14-isobutyl-N-(3-methoxyphenethyl)-12,15-dimethyl-10,13,16,20-tetraoxo-2,3,7,8,9,10,13,14,15,16,17,18,19,20-tetradecahydro-12H-spiro[benzofuro[7,6-p][1]oxa[4,7,10,14]tetraazacycloheptadecine-11,1′-cyclopropane]-18-carboxamide], the EC50 worked out at 447 nM and the Emax worked out at 220%.
